Reference: ChEMBL document CHEMBL5338785, “Development of Aromatic-Linked Diamino Acid Antimicrobial Peptide Mimics with Low Hemolytic Toxicity and Excellent Activity against Methicillin-Resistant Staphylococcus aureus (MRSA)” (J Med Chem, 2023)
Converted amounts (≈) assume the structure as drawn. The source made the active and inactive calls. The rule behind the calls is not given here.

Legend:
[1] = test system: Stenotrophomonas maltophilia; test: Antibacterial activity against Stenotrophomonas maltophilia assessed as bacterial growth inhibition incubated for 18 hrs by CLSI protocol based Mueller-Hinton broth assay; type: functional
[2] = Selectivity index, ratio of HC50 for hemolytic activity in sheep RBC to MIC for antibacterial activity against methicillin-resistant Staphylococcus aureus assessed as bacterial growth inhibition; type: toxicity; settings: for selectivity ratio: sheep red blood cells; for Ratio: erythrocytes
[3] = (§1) Hemolytic activity in sheep RBC assessed as hemolysis incubated for 1 hr by microplate reader method; type: toxicity, cell-based, Ovis aries, Erythrocyte; settings: sheep red blood cells
Enterococcus faecalis = test: Antibacterial activity against Enterococcus faecalis assessed as bacterial growth inhibition incubated for 18 hrs by CLSI protocol based Mueller-Hinton broth assay; type: functional
Escherichia coli = test: Antibacterial activity against Escherichia coli assessed as bacterial growth inhibition incubated for 18 hrs by CLSI protocol based Mueller-Hinton broth assay; type: functional
Staphylococcus aureus [4] = test: Antibacterial activity against methicillin-resistant Staphylococcus aureus assessed as bacterial growth inhibition incubated for 18 hrs by CLSI protocol based Mueller-Hinton broth assay; type: functional
Staphylococcus aureus [5] = test: Antibacterial activity against methicillin-resistant Staphylococcus aureus clinical isolates assessed as bacterial growth inhibition incubated for 18 hrs by CLSI protocol based Mueller-Hinton broth assay; type: functional
Erythrocyte = test: as §1; type: toxicity, cell-based, Ovis aries; settings: erythrocyte, 1 h
[6] = Cytotoxicity against HUVEC cells assessed as reduction in cell viability incubated for 72 hrs by CCK8 assay; type: toxicity, cell-based; settings: human
Staphylococcus aureus [7] = test: Antibacterial activity against methicillin-resistant Staphylococcus aureus assessed as resistance development by measuring increase in MIC measured after 14 days by resistance development assay (reference value: 1 ug/ml); type: functional; settings: 336 h, time 14 day
Staphylococcus aureus [8] = test: In vivo antibacterial activity against methicillin-resistant Staphylococcus aureus infected in SPF Kunming mouse assessed as reduction in neutrophils in skin tissue at 10 mg/kg ,ip administered every 12 hrs for 3 consecutive days; type: functional, organism-based; settings: time 3.0 day
Staphylococcus aureus [9] = test: In vivo antibacterial activity against methicillin-resistant Staphylococcus aureus infected in SPF Kunming mouse assessed as reduction in inflammation in skin tissue at 10 mg/kg ,ip administered every 12 hrs for 3 consecutive days; type: functional, organism-based; settings: time 3.0 day
Staphylococcus aureus [10] = test: Bactericidal activity against methicillin-resistant Staphylococcus aureus assessed as reduction in turbidity at 3 ug/ml measured after 6 hrs; type: functional, organism-based; settings: dose 3.0 µg/ml
Staphylococcus aureus [11] = test: In vivo antibacterial activity against methicillin-resistant Staphylococcus aureus infected in SPF Kunming mouse assessed as reduction in amount of bacteria measure per abscess at 5 mg/kg ,ip administered every 12 hrs for 3 consecutive days; type: functional; settings: time 3 day
Staphylococcus aureus [12] = test: Bactericidal activity against methicillin-resistant Staphylococcus aureus at 3 ug/ml measured after 12 hrs by time-killing kinetics assay; type: functional, organism-based; settings: dose 3.0 µg/ml
[13] = Stenotrophomonas maltophilia, read-out: MIC
[14] = Enterococcus faecalis, 18 h, read-out: MIC
[15] = Escherichia coli, 18 h, read-out: MIC
[16] = Staphylococcus aureus, read-out: MIC

Compound	MIC [1, 13] [µg/mL]	selectivity ratio [2]	HC50 at 1 h [3] [µg/mL]	MIC (Enterococcus faecalis; [14]) [µg/mL]	MIC (Escherichia coli; [15]) [µg/mL]	MIC (Staphylococcus aureus [4]; [16]) [µg/mL]	MIC (Staphylococcus aureus [5]) [µg/mL]	further results
CCCCCCN(CCCOc1cccc(OCCCN(CCCCCC)C(=O)[C@@H](N)CCCCN)c1)C(=O)[C@@H](N)CCCCN.Cl.Cl.Cl.Cl	8	> 500	> 1000	4	16	2	0.5	–
CCCCCCN(CCCOc1cc2ccccc2cc1OCCCN(CCCCCC)C(=O)[C@@H](N)CCCCN)C(=O)[C@@H](N)CCCCN.Cl.Cl.Cl.Cl	4	> 1000	> 1000	1	8	1	0.5	–
CCCCCCCN(CCOc1ccc(OCCN(CCCCCCC)C(=O)[C@@H](N)CCCCN)cc1)C(=O)[C@@H](N)CCCCN.Cl.Cl.Cl.Cl	2	478	478	1	4	1	0.5	–
CCCCCCCN(CCCOc1ccc(OCCCN(CCCCCCC)C(=O)[C@@H](N)CCCCN)cc1)C(=O)[C@@H](N)CCCCN.Cl.Cl.Cl.Cl	2	201	402	1	4	2	0.5	–
CCCCCCN(CCCOc1ccc2ccccc2c1-c1c(OCCCN(CCCCCC)C(=O)[C@@H](N)CCCCN)ccc2ccccc12)C(=O)[C@@H](N)CCCCN.Cl.Cl.Cl.Cl (stereo in doubt; 8p)	–	–	–	–	–	–	–	MIC [1]: 1 µg/mL; Ratio [2]: 117; HC50 (Erythrocyte): 117 µg/mL; MIC (Enterococcus faecalis): 1 µg/mL; MIC (Escherichia coli): 2 µg/mL; MIC (Staphylococcus aureus [4]): 1 µg/mL
CCCCCCCN(CCCOc1cccc(OCCCN(CCCCCCC)C(=O)[C@@H](N)CCCCN)c1)C(=O)[C@@H](N)CCCCN.Cl.Cl.Cl.Cl	4	814	814	1	2	1	0.5	–
CCCCCCCN(CCCOc1ccc2ccccc2c1-c1c(OCCCN(CCCCCCC)C(=O)[C@@H](N)CCCCN)ccc2ccccc12)C(=O)[C@@H](N)CCCCN.Cl.Cl.Cl.Cl (stereo in doubt; 8n)	2	–	–	2	2	2	–	Ratio [2]: 15.5; HC50 (Erythrocyte): 31 µg/mL
CCCCCCN(CCCOc1ccc2c(OCCCN(CCCCCC)C(=O)[C@@H](N)CCCCN)cccc2c1)C(=O)[C@@H](N)CCCN.Cl.Cl.Cl.Cl	2	306	612	2	2	2	0.5	–
C=C[C@]1(C)C[C@@H](OC(=O)CS[C@@H]2C[C@H]3CC[C@@H](C2)N3C)[C@]2(C)[C@H](C)CC[C@]3(CCC(=O)[C@H]32)[C@@H](C)[C@@H]1O [RETAPAMULIN]	–	–	–	–	–	–	–	CC50 at 72 h [6]: 25.5 µg/mL (≈ 49.2 µM)
CCn1cc(C(=O)O)c(=O)c2cc(F)c(N3CCNCC3)cc21 [NORFLOXACIN]	–	–	–	–	–	–	–	MIC (Staphylococcus aureus [7]): 128 µg/mL (≈ 401 µM)
CN[C@H](CC(C)C)C(=O)N[C@H]1C(=O)N[C@@H](CC(N)=O)C(=O)N[C@H]2C(=O)N[C@H]3C(=O)N[C@H](C(=O)N[C@H](C(=O)O)c4cc(O)cc(O)c4-c4cc3ccc4O)[C@H](O)c3ccc(c(Cl)c3)Oc3cc2cc(c3O[C@@H]2O[C@H](CO)[C@@H](O)[C@H](O)[C@H]2O[C@H]2C[C@](C)(N)[C@H](O)[C@H](C)O2)Oc2ccc(cc2Cl)[C@H]1O [VANCOMYCIN]	–	–	> 1000	–	–	–	–	Activity (Staphylococcus aureus [8]): Active; Activity (Staphylococcus aureus [9]): Active; Activity (Staphylococcus aureus [10]): Active; Activity (Staphylococcus aureus [11]): 14454.4 CFU; Activity (Staphylococcus aureus [12]): Active
CCCCCCCN(CCCOc1ccc2ccccc2c1-c1c(OCCCN(CCCCCCC)C(=O)[C@@H](N)CCCCN)ccc2ccccc12)C(=O)[C@@H](N)CCCCN.Cl.Cl.Cl.Cl (stereo in doubt; 8q)	–	–	–	–	–	–	–	MIC [1]: 2 µg/mL; Ratio [2]: 3.5; HC50 (Erythrocyte): 7 µg/mL; MIC (Enterococcus faecalis; 18 h): 1 µg/mL; MIC (Escherichia coli): 2 µg/mL; MIC (Staphylococcus aureus [4]): 2 µg/mL
CC[C@H](C)[C@H](NC(=O)CN)C(=O)NCC(=O)N[C@@H](C)C(=O)N[C@H](C(=O)N[C@@H](CC(C)C)C(=O)N[C@@H](CCCCN)C(=O)N[C@H](C(=O)N[C@@H](CC(C)C)C(=O)N[C@H](C(=O)N[C@H](C(=O)NCC(=O)N[C@@H](CC(C)C)C(=O)N1CCC[C@H]1C(=O)N[C@@H](C)C(=O)N[C@@H](CC(C)C)C(=O)N[C@H](C(=O)N[C@@H](CO)C(=O)N[C@@H](Cc1c[nH]c2ccccc12)C(=O)N[C@H](C(=O)N[C@@H](CCCCN)C(=O)N[C@@H](CCCNC(=N)N)C(=O)N[C@@H](CCCCN)C(=O)N[C@@H](CCCNC(=N)N)C(=O)N[C@@H](CCC(N)=O)C(=O)N[C@@H](CCC(N)=O)C(N)=O)[C@@H](C)CC)[C@@H](C)CC)[C@@H](C)O)[C@@H](C)O)C(C)C)C(C)C [MELITTIN]	–	–	–	–	–	–	–	CC50 at 72 h [6]: 5.8 µg/mL (≈ 2.04 µM)
CCCCCCCCN(CCCOc1ccc2ccccc2c1-c1c(OCCCN(CCCCCCCC)C(=O)[C@@H](N)CCCCN)ccc2ccccc12)C(=O)[C@@H](N)CCCCN.Cl.Cl.Cl.Cl (stereo in doubt; 8r)	–	–	–	–	–	–	–	MIC [1]: 4 µg/mL; Ratio [2]: 34; HC50 (Erythrocyte): 136 µg/mL; MIC (Enterococcus faecalis): 2 µg/mL; MIC (Escherichia coli; 18 h): 4 µg/mL; MIC (Staphylococcus aureus [4]): 4 µg/mL
CCCCCCN(CCCCOc1ccc(OCCCCN(CCCCCC)C(=O)[C@@H](N)CCCCN)cc1)C(=O)[C@@H](N)CCCCN.Cl.Cl.Cl.Cl	4	217	868	4	4	4	0.5	–
CCCCCCCN(CCCOc1ccccc1OCCCN(CCCCCCC)C(=O)[C@@H](N)CCCCN)C(=O)[C@@H](N)CCCCN.Cl.Cl.Cl.Cl	8	> 500	> 1000	1	16	2	0.5	–
CCCCCCCCN(CCCOc1ccccc1)C(=O)[C@@H](N)CCCCN.Cl.Cl	16	34	275	4	32	8	–	–
CCCCCCCCCCN(CCCOc1ccccc1-c1ccccc1OCCCN(CCCCCCCCCC)C(=O)[C@@H](N)CCCCN)C(=O)[C@@H](N)CCCCN.Cl.Cl.Cl.Cl	8	5	40	8	8	8	–	–
CCCCCCN(CCCOc1ccc2ccccc2c1-c1c(OCCCN(CCCCCC)C(=O)[C@@H](N)CCCCN)ccc2ccccc12)C(=O)[C@@H](N)CCCCN.Cl.Cl.Cl.Cl (stereo in doubt; 8m)	1	61	61	1	2	1	–	–
CCCCCCCN(CCCOc1ccccc1)C(=O)[C@@H](N)CCCCN.Cl.Cl	64	24.2	773	16	128	32	–	–
CCCCCCN(CCCOc1ccc(OCCCN(CCCCCC)C(=O)[C@@H](N)CCCCN)cc1)C(=O)[C@@H](N)CCCCN.Cl.Cl.Cl.Cl	16	> 250	> 1000	4	16	4	0.5	–
